Measured values taken from patent publication US20250223300A1, “MACROCYCLIC COMPOUND AND PHARMACEUTICAL COMPOSITION AND USE THEREOF” (BETTA PHARMACEUTICALS CO., LTD, priority 2022, published 2025).

Assays:
Format in all cases: cell-based
[1] = biological target: Ba/F3 cells overexpressing EGFR Del19/T790M/C797S (Homo sapiens, UniProt P00533, T790M/C797S, cells depend on it, form not given); experiment: Cell proliferation inhibitory activity assay, Ba/F3 EGFR Del19/T790M/C797S; settings: cell proliferation inhibition, 72 hours, luminescence; read-out: Ba/F3 cells overexpressing different EGFR mutations IC50 (nM) Del19/T790M/C797S
Procedure: (§1) Suspension cells Ba/F3 (EGFR. Dell9/T790M/C797S), Ba/F3 (EGFR L858R/T790M/C797S), Ba/F3 (EGFR Del19/C797S), and Ba/F3 (EGFR L858R/C797S) overexpressing different EGFR mutations were cultured in PRMI 1640 containing 10% FBS and 1% PS, and adherent cells A431 carrying EGFR WT were cultured in DMEM containing 10% FBS and 1% PS. The experimental steps for compound activity detection are as follows: • (1) Take adherent cells in the logarithmic growth phase, digest them with trypsin count them, and then inoculate them into a 96-well plate at a certain density. Incubate them overnight at 37° C. and 5% CO2 to allow them to adhere.
(§2) Y=minimum+([…])/(1+10^((Log IC50−X)*slope)); • X: logarithm of compound concentration; Y: cell survival inhibition rate.

[2] = tested on: A431 cell carrying EGFR WT; experiment: Cell proliferation inhibitory activity assay, A431; settings: Homo sapiens, A-431; cell proliferation inhibition, 72 hours, luminescence
Procedure: as §1, §2

[3] = biological target: Ba/F3 (EGFR Del19/C797S) (Homo sapiens, UniProt P00533, C797S, cells depend on it, form not given); experiment: Cell proliferation inhibitory activity assay, Ba/F3 EGFR Del19/C797S; settings: cell proliferation inhibition, 72 hours, luminescence; read-out: Ba/F3 cells overexpressing different EGFR mutations IC50 (nM) Del19/C797S
Procedure: as §1, §2

[4] = biological target: Ba/F3 (EGFR L858R/T790M/C797S) (Homo sapiens, UniProt P00533, T790M/C797S/L858R, cells depend on it); experiment: Cell proliferation inhibitory activity assay, Ba/F3 EGFR L858R/T790M/C797S; settings: cell proliferation inhibition, 72 hours, luminescence; read-out: Ba/F3 cells overexpressing different EGFR mutations IC50 (nM) L858R/T790M/C797S
Procedure: as §1, §2

[5] = biological target: Ba/F3 (EGFR L858R/C797S) (Homo sapiens, UniProt P00533, C797S/L858R, cells depend on it); experiment: Cell proliferation inhibitory activity assay, Ba/F3 EGFR L858R/C797S; settings: cell proliferation inhibition, 72 hours, luminescence; read-out: Ba/F3 cells overexpressing different EGFR mutations IC50 (nM) L858R/C797S
Procedure: as §1, §2

Sequence of Ba/F3 (EGFR L858R/T790M/C797S) (P00533 whole entry T790M/C797S/L858R): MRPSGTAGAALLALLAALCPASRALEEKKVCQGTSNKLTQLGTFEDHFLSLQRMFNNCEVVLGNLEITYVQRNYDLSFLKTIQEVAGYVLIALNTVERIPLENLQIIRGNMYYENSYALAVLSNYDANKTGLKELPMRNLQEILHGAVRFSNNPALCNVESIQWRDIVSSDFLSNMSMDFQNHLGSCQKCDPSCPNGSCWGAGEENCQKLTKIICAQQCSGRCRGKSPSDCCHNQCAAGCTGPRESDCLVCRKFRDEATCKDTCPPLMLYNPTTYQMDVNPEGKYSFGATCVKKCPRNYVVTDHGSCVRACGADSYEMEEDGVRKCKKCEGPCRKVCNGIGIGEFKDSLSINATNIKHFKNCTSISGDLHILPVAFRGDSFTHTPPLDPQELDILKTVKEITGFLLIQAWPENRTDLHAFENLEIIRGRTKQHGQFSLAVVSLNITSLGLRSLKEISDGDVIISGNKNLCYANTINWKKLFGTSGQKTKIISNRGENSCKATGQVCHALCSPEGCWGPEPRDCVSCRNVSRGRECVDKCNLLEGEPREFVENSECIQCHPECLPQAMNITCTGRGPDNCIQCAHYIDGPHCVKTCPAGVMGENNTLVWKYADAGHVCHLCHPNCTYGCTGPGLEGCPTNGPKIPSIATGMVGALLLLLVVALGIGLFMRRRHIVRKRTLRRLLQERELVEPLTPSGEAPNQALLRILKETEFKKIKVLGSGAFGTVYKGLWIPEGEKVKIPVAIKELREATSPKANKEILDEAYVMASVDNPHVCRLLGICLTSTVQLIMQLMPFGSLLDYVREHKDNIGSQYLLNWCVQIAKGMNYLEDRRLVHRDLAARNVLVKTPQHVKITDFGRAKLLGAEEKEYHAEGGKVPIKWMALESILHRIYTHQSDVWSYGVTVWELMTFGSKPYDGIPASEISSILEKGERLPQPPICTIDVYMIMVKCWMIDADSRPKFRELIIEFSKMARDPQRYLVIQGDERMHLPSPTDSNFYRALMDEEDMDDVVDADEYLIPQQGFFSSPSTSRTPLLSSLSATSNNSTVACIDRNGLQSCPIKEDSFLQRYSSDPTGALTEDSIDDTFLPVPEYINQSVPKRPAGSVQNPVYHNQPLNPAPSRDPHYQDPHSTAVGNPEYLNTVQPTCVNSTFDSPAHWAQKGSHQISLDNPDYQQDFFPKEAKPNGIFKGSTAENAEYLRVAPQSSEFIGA
Sequence of Ba/F3 cells overexpressing EGFR Del19/T790M/C797S (P00533 with tags, fused parts or gaps DEL746-750/T790M/C797S, form open): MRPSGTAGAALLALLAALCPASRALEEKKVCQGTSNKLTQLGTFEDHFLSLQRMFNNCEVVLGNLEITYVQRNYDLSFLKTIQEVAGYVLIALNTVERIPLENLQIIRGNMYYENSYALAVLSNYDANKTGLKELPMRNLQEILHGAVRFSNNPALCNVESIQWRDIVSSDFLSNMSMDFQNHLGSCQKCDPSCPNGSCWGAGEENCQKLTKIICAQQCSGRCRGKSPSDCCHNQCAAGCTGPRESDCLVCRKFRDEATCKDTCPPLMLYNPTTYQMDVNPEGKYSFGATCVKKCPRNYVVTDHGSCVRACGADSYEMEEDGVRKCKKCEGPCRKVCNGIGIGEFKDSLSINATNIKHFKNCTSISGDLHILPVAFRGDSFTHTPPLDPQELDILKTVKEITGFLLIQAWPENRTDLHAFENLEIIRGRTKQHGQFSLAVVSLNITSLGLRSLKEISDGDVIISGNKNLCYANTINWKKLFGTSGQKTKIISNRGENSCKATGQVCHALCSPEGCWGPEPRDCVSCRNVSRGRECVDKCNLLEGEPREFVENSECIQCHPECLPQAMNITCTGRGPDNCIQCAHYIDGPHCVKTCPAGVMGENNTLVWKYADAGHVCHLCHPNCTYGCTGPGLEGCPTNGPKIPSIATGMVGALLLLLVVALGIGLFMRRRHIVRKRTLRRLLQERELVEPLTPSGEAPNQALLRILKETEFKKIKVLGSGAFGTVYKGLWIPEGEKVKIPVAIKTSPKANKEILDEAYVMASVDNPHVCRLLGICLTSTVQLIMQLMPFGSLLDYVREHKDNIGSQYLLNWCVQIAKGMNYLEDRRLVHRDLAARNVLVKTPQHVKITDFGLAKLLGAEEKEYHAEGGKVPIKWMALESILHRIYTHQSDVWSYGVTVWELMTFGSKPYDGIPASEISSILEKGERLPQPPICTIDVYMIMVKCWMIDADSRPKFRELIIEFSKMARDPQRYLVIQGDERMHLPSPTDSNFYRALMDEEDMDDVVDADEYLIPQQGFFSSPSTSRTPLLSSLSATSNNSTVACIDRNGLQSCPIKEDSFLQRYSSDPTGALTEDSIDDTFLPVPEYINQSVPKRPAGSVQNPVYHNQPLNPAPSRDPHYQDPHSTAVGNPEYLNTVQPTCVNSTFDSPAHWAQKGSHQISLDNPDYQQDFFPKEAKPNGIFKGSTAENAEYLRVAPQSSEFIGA
Sequence of Ba/F3 (EGFR Del19/C797S) (P00533 with tags, fused parts or gaps DEL746-750/C797S, form open): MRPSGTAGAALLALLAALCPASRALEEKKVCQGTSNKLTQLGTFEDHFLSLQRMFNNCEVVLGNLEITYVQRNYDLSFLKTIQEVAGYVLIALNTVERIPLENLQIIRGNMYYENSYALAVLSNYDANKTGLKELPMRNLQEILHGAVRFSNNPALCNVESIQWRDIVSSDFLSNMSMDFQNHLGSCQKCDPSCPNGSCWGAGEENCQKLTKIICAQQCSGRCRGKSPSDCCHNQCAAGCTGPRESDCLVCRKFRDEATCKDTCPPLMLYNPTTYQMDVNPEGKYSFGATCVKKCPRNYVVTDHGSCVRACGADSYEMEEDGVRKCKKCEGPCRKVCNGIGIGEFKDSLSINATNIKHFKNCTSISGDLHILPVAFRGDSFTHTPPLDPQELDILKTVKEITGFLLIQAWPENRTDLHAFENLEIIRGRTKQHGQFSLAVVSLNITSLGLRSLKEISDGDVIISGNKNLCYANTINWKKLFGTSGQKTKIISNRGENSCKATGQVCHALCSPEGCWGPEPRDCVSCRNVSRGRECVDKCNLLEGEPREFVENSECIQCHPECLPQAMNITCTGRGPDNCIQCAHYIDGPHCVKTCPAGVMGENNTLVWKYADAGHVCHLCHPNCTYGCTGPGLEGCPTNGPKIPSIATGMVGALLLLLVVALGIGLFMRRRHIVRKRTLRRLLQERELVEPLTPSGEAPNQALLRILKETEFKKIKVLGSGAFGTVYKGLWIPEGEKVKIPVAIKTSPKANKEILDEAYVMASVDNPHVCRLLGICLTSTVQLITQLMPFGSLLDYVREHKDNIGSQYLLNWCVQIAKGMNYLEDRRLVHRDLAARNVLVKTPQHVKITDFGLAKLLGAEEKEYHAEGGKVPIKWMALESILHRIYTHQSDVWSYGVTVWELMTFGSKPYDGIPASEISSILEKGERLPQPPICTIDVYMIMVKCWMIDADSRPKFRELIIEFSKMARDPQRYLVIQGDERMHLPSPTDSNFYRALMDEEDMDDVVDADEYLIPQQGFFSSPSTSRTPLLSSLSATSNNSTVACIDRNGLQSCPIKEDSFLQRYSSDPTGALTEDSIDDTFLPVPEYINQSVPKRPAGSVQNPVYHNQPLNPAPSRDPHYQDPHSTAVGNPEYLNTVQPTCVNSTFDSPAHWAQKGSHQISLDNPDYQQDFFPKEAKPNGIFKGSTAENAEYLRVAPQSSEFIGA
Sequence of Ba/F3 (EGFR L858R/C797S) (P00533 whole entry C797S/L858R): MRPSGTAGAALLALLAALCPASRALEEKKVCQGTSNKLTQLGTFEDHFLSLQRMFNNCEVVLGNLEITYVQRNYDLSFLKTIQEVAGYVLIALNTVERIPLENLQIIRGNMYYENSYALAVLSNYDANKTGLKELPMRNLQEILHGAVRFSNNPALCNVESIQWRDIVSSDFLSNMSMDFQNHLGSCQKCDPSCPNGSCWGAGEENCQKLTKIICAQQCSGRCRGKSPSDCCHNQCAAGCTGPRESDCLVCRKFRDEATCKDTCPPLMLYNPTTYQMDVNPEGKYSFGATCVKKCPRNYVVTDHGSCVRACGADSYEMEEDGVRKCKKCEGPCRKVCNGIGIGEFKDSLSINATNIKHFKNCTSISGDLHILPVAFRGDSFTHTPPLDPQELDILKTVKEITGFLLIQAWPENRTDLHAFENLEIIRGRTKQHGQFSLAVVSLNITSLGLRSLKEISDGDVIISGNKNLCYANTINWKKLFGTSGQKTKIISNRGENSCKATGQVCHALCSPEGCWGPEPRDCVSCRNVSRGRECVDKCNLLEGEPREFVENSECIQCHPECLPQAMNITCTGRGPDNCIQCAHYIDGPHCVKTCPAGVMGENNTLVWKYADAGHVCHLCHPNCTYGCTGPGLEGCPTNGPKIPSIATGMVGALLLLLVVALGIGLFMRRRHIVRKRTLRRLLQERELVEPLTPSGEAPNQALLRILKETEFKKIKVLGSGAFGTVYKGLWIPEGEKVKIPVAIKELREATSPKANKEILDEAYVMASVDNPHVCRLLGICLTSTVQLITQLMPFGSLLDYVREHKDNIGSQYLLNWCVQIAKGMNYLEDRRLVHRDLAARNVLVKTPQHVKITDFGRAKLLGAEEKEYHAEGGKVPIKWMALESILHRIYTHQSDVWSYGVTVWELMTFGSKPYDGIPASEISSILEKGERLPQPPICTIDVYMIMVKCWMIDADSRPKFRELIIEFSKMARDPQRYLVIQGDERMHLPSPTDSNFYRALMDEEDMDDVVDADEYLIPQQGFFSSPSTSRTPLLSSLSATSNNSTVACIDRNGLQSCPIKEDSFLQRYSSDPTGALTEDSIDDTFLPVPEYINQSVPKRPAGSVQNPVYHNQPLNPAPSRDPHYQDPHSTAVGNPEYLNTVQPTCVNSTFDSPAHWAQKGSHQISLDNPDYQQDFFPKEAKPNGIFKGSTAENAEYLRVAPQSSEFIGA

GI50 [1]	IC50 [2]	GI50 [3]	GI50 [4]	GI50 [5]	Compound
1.3 nM	294 nM	0.27 nM	2 nM	2 nM	Cc1cc2cc(n1)-c1cnccc1OCCC[C@@H](C)Cn1c(nc3ccc(N4CCC5(CC4)CCN(C4COC4C)CC5)cc31)NC2=O (stereo partly drawn) [Example 83, (7R)-2^6,7-dimethyl-5^6-(9-(2-methyloxetan-3-yl)-3,9-diazaspiro [5.5]undecan-3-yl)-5^1H-11-oxa-4-aza-5(2,1)-benzo[d] imidazola-1(3,4),2(2,4)-dipyridinacyclo-undecaphan-3-one]
5.4 nM	1410 nM	5.8 nM	11 nM	21 nM	Cc1cc2cc(n1)-c1cnccc1OCCCCCn1c(nc3ccc(N4CCC5(CCN(CCN(C)C)CC5)CC4)cc31)NC2=O [Example 87, 5^6-(9-(2-(dimethyl-amino)ethyl)-3,9-diazaspiro [5.5]undecan-3-yl)-2^6-methyl-5^1H-11-oxa-4-aza-5(2,1)-benzo [d]imidazola-1(3,4),2(2,4)-dipyridinacyclo-undecaphan-3-one]
1.1 nM	1250 nM	0.69 nM	2.3 nM	4.6 nM	Cc1cc2cc(n1)-c1cnccc1OCCCCCn1c(nc3cc(F)c(N4CCC5(CC4)CCN(C4CC4)CC5)cc31)NC2=O [Example 65, 5^6-(9-cyclopropyl-3,9-diazasptro [5.5]undecan-3-yl)-5^5-fluoro-2^6-methyl-5^1H-11-oxa-4-aza-5(2,1)-benzo [d]imidazola-1(3,4),2(2,4)-dipyridinacyclo-undecaphan-3-one]
1.8 nM	1210 nM	0.71 nM	4.6 nM	6.5 nM	Cc1cc2cc(n1)-c1cnccc1OCCCCCn1c(nc3ccc(N4CCC5(CC4)CCN(C4CC4)CC5)cc31)NC2=O [Example 89, 5^6-(9-cyclopropyl-3,9-diazaspiro [5.5]undecan-3-yl)-2^6-methyl-5^1H-11-oxa-4-aza-5(2,1)-benzo[d] imidazola-1(3,4),2(2,4)-dipyridinacyclo-undecaphan-3-one]
0.5 nM	472 nM	0.67 nM	1.5 nM	2 nM	Cc1cc2cc(n1)-c1cnccc1OCCCCCn1c(nc3cc(F)c(N4CCC5(CC4)CCN(C4COC4)CC5)cc31)NC2=O [Example 63, 5^5-fluoro-2^6-methyl-5^6-(9-(oxetan-3-yl)-3,9-diazaspiro[5.5]undecan-3-yl)-5^1H-11-oxa-4-aza-5(2,1)-benzo [d]imidazola-1(3,4),2(2,4)-dipyridinacyclo-undecaphan-3-one]
0.95 nM	772 nM	0.57 nM	3 nM	3.8 nM	Cc1cc2cc(n1)-c1cnccc1OCCCCCn1c(nc3cc(F)c(N4CCC5(CCN(CC6COC6)CC5)CC4)cc31)NC2=O [Example 62, 5^5-fluoro-2^6-methyl-5^6-(9-(oxetan-3-ylmethyl)-3,9-diazaspiro [5.5]undecan-3-yl)-5^1H-11-oxa-4-aza-5(2,1)-benzo[d] imidazola-1(3,4),2(2,4)-dipyridinacyclo-undecaphan-3-one]
0.07 nM	646 nM	0.11 nM	0.08 nM	0.07 nM	COCCN1CCC2(CC1)CCN(c1ccc3nc4n(c3c1)CCCCCOc1ccncc1-c1cc(cc(C)n1)C(=O)N4)CC2 [Example 75, 5^6-(9-(2-methoxy-ethyl)-3,9-diazaspiro[5.5]undecan-3-yl)-2^6-methyl-5^1H-11-oxa-4-aza-5(2,1)-benzo[d] imidazola-1(3,4), 2(2,4)-dipyridinacyclo-undecaphan-3-one]
0.91 nM	1080 nM	0.29 nM	1.8 nM	3 nM	Cc1cc2cc(n1)-c1cnccc1OCCCCCn1c(nc3cc(F)c(N4CCC5(CCN(CCF)CC5)CC4)cc31)NC2=O [Example 61, 5^5-fluoro-5^6-(9-(2-fluoroethyl)-3,9-diazaspiro [5.5]undecan-3-yl)-2^6-methyl-5^1H-11-oxa-4-aza-5(2,1)-benzo [d]imidazola-1(3,4),2(2,4)-dipyridinacyclo-undecaphan-3-one]
4.7 nM	770 nM	2.9 nM	12 nM	17 nM	Cc1cc2cc(n1)-c1cnccc1OCCC[C@@H](C)Cn1c(nc3ccc(N4CCC5(CC4)CCN(C4COC4(C)C)CC5)cc31)NC2=O (stereo partly drawn) [Example 82, (7R)-5^6-(9-(2,2-dimethyloxetan-3-yl)-3,9-diazaspiro[5.5]undecan-3-yl)-2^6,7-dimethyl-5^1H-11-oxa-4-aza-5(2,1)-benzo [d]imidazola-1(3,4),2(2,4)-dipyridinacyclo-undecaphan-3-one]

The next lines start with the compound.

Compound	GI50 [1]	IC50 [2]	GI50 [3]	GI50 [4]	GI50 [5]
Cc1cc2cc(n1)-c1cnccc1OCCC[C@@H](C)Cn1c(nc3ccc(N4CCC5(CC4)CCN(C4CC4)CC5)cc31)NC2=O [Example 45, (R)-5^6-(9-cyclopropyl-3,9-diazaspiro[5.5]undecan-3-yl)-2^6,7-dimethyl-5^1H-11-oxa-4-aza-5(2,1)-benzo [d]imidazola-1(3,4),2(2,4)-dipyridinacyclo-undecaphan-3-one]	1.6 nM	701 nM	0.27 nM	3.7 nM	2.1 nM
Cc1cc2cc(n1)-c1cnccc1OCCCC(C)(C)Cn1c(nc3ccc(N4CCC5(CCN(C)CC5)CC4)cc31)NC2=O [Example 7, 2^6,9,9-trimethyl-5^6-(9-methyl-3,9-diazaspiro[5.5]undecan-3-yl)-5^1H-11-oxa-4-aza-5(2,1)-benzo[d]imidazola-1(3,4),2(2,4)-dipyridinacycloundecaphan-3-one]	1.6 nM	226 nM	4.5 nM	3.7 nM	11 nM
Cc1cc2cc(n1)-c1cnccc1OCCC[C@@H](C)Cn1c(nc3cc(C)c(N4CCC5(CCN(C)CC5)CC4)cc31)NC2=O [Example 11, (R)-2^6,5^3,7-trimethyl-5^6-(9-methyl-3,9-diazaspiro[5.5]undecan-3-yl)-5^1H-11-oxa-4-aza-5(2.I)-benzo[d]imidazola-1(3,4),2(2,4)-dipyridinacycloundecaphan-3-one]	2.2 nM	493 nM	0.15 nM	3.4 nM	1 nM
Cc1cc2cc(n1)-c1cnccc1OCCCCCn1c(nc3cc(F)c(N4CCC5(CCN(C)CC5)CC4)cc31)NC2=O [Example 14, 5^5-fluoro-2^6-methyl-5^6-(9-methyl-3,9-diazaspiro[5.5]undecan-3-yl)-5^1H-11-oxa-4-aza-5(2,1)-benzo[d]imidazola-1(3,4),2(2,4)-dipyridinacycloundecaphan-3-one]	0.37 nM	805 nM	0.18 nM	1.5 nM	1.8 nM
Cc1cc2cc(n1)-c1cnccc1OCCCCCn1c(nc3ccc(N4CCC5(CCN(CCC(N)=O)CC5)CC4)cc31)NC2=O [Example 18, 3-(9-(2^6-methyl-3-oxo-5^1H-11-oxa-4-aza-5(2,1)-benzo[d]imidazola-1(3,4),2(2,4)-dipyridinacycloundecaphane-5^6-yl)-3,9-diazaspiro[5.5]undecan-3-yl)propanamide]	0.77 nM	631 nM	0.5 nM	2.1 nM	3.9 nM
COCCCN1CCC2(CC1)CCN(c1ccc3nc4n(c3c1)C[C@H](C)CCCOc1cc(F)ncc1-c1cc(cc(C)n1)C(=O)N4)CC2 [Example 17, 1^6-fluoro-5^6-(9-(3-methoxypropyl)-3,9-diazaspiro[5.5]undecan-3-yl)-2^6-methyl-5^1H-11-oxa-4-aza-5(2,1)-benzo[d]imidazola-1(3,4),2(2,4)-dipyridinacycloundecaphan-3-one]	1.2 nM	1470 nM	5 nM	4.7 nM	18 nM
Cc1cc2cc(n1)-c1cnc(F)cc1OCCC[C@@H](C)Cn1c(nc3ccc(N4CCC5(CCNCC5)CC4)cc31)NC2=O [Example 9, (R)-1^6-fluoro-2^6,7-dimethyl-5^6-(3,9-driazaspiro[3.5]undecan-3-yl)-5^1-11-oxa-4-aza-5(2,1)-benzo[d]imidazola-1(3,4),2(2,4)-dipyridinacycloundecaphan-3-one]	0.73 nM	425 nM	0.77 nM	1.1 nM	3.6 nM
